A value given as a limit tells only on which side of the number the result lay.

The experiment has as its target T1, Dimer of Gag-Pol polyprotein [489-587] (Human immunodeficiency virus 1, UniProt P12497).
T1 construct: 489-587
Briefly: Protease Inhibition Assay. The settings on record: pH 5.5; 25 °C. The protocol:
The inhibition assays were performed by mixing enzyme and fluorogenic substrate in the presence of inhibitor compounds. The hydrolysis of the substrate was recorded as an increase of the fluorescence intensity. Ki values were calculated from the IC50 values taken from a dose-response curve with the fluorescent assay using the equation Ki = (IC50 - [E]/2)/ (1 +[S]/Km), where [E] and [S] are the protease and substrate concentrations, Km is the Michaelis-Menten constant.

The IC50 is the concentration that inhibits the measured activity by half. A lower IC50 goes with greater potency. In turn, `O=C(N[C@@H](Cc1cccc(Br)c1)[C@H](O)C[C@H](CCc1ccc(Cl)cc1Cl)S(=O)(=O)c1ccc(F)cc1)[C@H]1CCCO1` [(2R)-N-{(1S,2R,4S)-1-(3-bromobenzyl)-6-(2,4-dichlorophenyl)-4-[(4-fluorophenyl)sulfonyl]-2-hydroxyhexyl}tetrahydrofuran-2-carboxamide] gave an IC50 of 4.2 µM. In other words, the single-digit micromolar range.

Usually Ki stands for the equilibrium dissociation constant of an inhibitor or competing ligand from its target. A higher Ki goes with weaker binding. In turn, `O=C(N[C@H](Cc1cccc(Br)c1)[C@@H](O)C[C@@H](CCc1ccc(Cl)cc1Cl)S(=O)(=O)c1ccc(F)cc1)[C@H]1CCCO1` [(2R)-N-{(1R,2S,4R)-1-(3-bromobenzyl)-6-(2,4-dichlorophenyl)-4-[(4-fluorophenyl)sulfonyl]-2-hydroxyhexyl}tetrahydrofuran-2-carboxamide] showed an IC50 of more than 40 µM and a Ki of more than 40 µM.

As for `CC(C)CCS(=O)(=O)[C@@H](C)C[C@@H](O)[C@H](Cc1cccc(Br)c1)NC(=O)CCS(C)(=O)=O` [N-{(1S,2R,4S)-1-(3-bromobenzyl)-2-hydroxy-4-[(3-methylbutyl)sulfonyl]pentyl}-3-(methylsulfonyl)propanamide], the IC50 is more than 40 µM and the Ki is more than 40 µM.
